Experimental data as given in US9181263B2, “Inhibitors of bruton's tyrosine kinase” (PHARMACYCLICS, INC., priority 2007, dated 2015).

Experiments:
[1] = Glutathione binding assay; assay type: physicochemical; settings: 5 mM glutathione, 10 μM inhibitor, potassium phosphate buffer, room temperature, HPLC
Procedure: A calculated value (e.g (1/Btk IC50)/Glutathione conjugation rate) as shown in the Table 2) is used to compare compounds for their ratio between potency at inhibiting their target and their non-specific binding to other SH groups, such as those in glutathione. […] Calculated ratios such as these are used to quantitatively compare different compounds and select compounds for further study.
For the glutathione binding assays, 5 mM glutathione, 10 μM Btk inhibitor in DMSO (10 μL) and 6 equivalents of N′N′ Diisopropyl ethyl amine were combined in 1 mL potassium phosphate buffer. The mixture was incubated for 0, 15, 60 minutes at room temperature and the reaction was stopped with 10 equivalents of formic acid. 50 μL of each reaction mixture was injected on HPLC (Mobil Phase A: 0.2% formic acid in water, Mobile Phase B: 0.2% formic acid in acetonitrile, HPLC Column: Metasil Basic 3μ, 150×4.6 mm, 10% B, Gradient: 10% to 90% B, Detection: UV/Vis […]). Rate of reaction was reported as nmole GSH conjugate conversion per minute from the normalized ratio for area under the curve from HPLC chromatograms for both GSH conjugate and the parent.

[2] = system: collagen-induced arthritis (paw inflammation); assay: Collagen-induced arthritis in the mouse; assay type: in vivo, male DBA/1OlaHsd mice; settings: to day 11
Procedure: […]. Compound for vehicle was dosed orally once per day starting at day 1. Dexamethasone was included as a positive control. Paw inflammation was scored from 0-5 and averaged across all paws from all animals for each group in the study.
. After paw inflammation was established, animals were randomized and Compound for vehicle was dosed orally once per day starting at day 1. Paw inflammation was scored from 0-5 and averaged across all paws from all animals for each group in the study. […] Dexamethasone was included as a positive control.

[3] = Plasma concentrations after oral dosing of rats; assay type: in vivo, male jugular vein cannulated rats; settings: rat plasma, single 8 mg/kg dose by oral gavage, dosed in combination
Procedure: Blood samples were collected at 0.0833 (5 minutes), 0.333 (20 minutes), 1, 3, 6, 9, and 24 hours post-dosing from orally dosed rats.
Male jugular vein cannulated rats were administered a single dose of all test compounds at 8 mg/kg each, in combination by oral gavage. Dose volumes were adjusted based on body weight data collected immediately prior to dosing. Blood samples were collected at 0.0833 (5 minutes), 0.333 (20 minutes), 1, 3, 6, 9, and 24 hours post-dosing from orally dosed rats. The samples were collected into plasma separator Microtainer tubes with anticoagulant (lithium heparin). Plasma samples were prepared by centrifugation (5 min at 5000×g), and at least 100 μL were transferred to storage tubes and stored frozen at −80° C. Plasma samples were thawed and 75 uL aliquots were transferred to centrifuge tubes to which 10 μL aliquots of internal standard solution (1 μg/mL) were added. The samples were not diluted with blank plasma prior to further processing. Soluble proteins were precipitated by the addition of 200 μL of acetonitrile, followed by centrifugation (20 min at 16,000×g). The samples were evaporated to dryness and reconstituted in 200 μL of water containing 0.2% formic acid and 10% methanol. All samples were loaded onto an autosampler maintained at 6° C. and evaluated for concentrations of test compounds using LC-MS/MS.

Egr-1 = assay: Expression of ERK transcriptional target Egr-1; assay type: cell-based; settings: 1 uM
BTK = BTK (Homo sapiens (Human), UniProt Q06187); assay: HotSpot kinase assay, BTK; assay type: biochemical; settings: purified enzyme, 33P-ATP, 1 uM ATP
[4] = system: pERK / BCR signal transduction pathway in Ramos cells; assay: BCR pathway phosphorylation (phospho-specific antibodies) in Ramos; assay type: cell-based; settings: unstimulated Ramos cells (basal)
Text: (§1) To identify biomarkers that correlate with response to Compound 1, phosphorylation events in the BCR signal transduction pathway were investigated.
(§2) However, when we examined basal phosphorylation levels, we found higher basal phosphorylation in DOHH2 compared to Ramos, with phospho-ERK in particular indicating higher levels of basal or tonic signaling in DOHH2.

[5] = system: pERK / BCR signal transduction pathway in DOHH2 cells; assay: BCR pathway phosphorylation (phospho-specific antibodies) in DOHH2; assay type: cell-based; settings: unstimulated DOHH2 cells (basal); read-out: pERK levels IC50
Text: as §1, §2

[6] = target: panel of greater than 100 kinases (Tec family kinases including Btk, Src family kinases); assay: In vitro profiling against a panel of greater than 100 kinases; assay type: biochemical
Text: By way of example only and in some embodiments, the observed potency, selectivity, and cell permeability of compounds such as Compound 2 are appropriate to incorporate these molecules into a Kinase-targeted, activity based probe that allows direct visualization of Kinase activity in intact cells. […] Without limiting the scope of the compositions and methods described herein, it is postulated that the structural basis for the selectivity is covalent modification of a non-catalytic cysteine residue (Cys 481 in Btk) that is conserved in the ATP binding pocket of the Tec family and several other kinases.

BTK, sequence (Q06187 whole entry): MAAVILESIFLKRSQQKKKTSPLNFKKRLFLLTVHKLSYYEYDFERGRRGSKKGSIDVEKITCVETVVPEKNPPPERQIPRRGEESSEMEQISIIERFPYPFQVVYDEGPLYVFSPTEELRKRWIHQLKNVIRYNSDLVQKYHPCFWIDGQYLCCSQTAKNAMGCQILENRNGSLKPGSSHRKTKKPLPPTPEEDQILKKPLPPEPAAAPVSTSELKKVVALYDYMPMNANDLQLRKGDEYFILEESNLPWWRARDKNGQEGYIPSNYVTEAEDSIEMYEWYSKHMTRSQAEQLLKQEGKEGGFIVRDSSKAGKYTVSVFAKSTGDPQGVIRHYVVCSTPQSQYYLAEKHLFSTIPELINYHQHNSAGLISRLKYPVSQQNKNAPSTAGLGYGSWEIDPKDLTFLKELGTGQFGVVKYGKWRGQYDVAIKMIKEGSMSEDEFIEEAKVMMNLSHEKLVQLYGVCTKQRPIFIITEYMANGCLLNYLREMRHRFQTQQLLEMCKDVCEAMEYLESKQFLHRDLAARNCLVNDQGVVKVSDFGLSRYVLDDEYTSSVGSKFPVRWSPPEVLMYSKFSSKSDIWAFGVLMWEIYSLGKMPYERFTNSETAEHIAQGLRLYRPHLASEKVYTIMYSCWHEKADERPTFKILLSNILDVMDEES

Structure (SMILES) | Glutathione Conj Rate [1] | in vivo half-life [3] | further results
CC#CC(=O)N1CCC[C@@H](n2nc(-c3ccc(Oc4ccccc4)cc3)c3c(N)ncnc32)C1 [Compound 17, 1-((R)-3-(4-amino-3-(4-phenoxyphenyl)-1H-pyrazolo[3,4-d]pyrimidin-1-yl)piperidin-1-yl)but-2-yn-1-one] | 0.0243 nmol/min | – | –
Nc1ncnc2c1c(-c1ccc(Oc3ccccc3)cc1)nn2C1CCCN(C(=O)/C=C/CN2CCOCC2)C1 (centres unmarked) [Compound 5, (E)-1-(3-(4-amino-3-(4-phenoxyphenyl)-1H-pyrazolo[3,4-d]pyrimidin-1-yl)piperidin-1-yl)-4-morpholinobut-2-en-1-one] | 0.004 nmol/min | – | –
C=CC(=O)N[C@H]1CC[C@@H](n2nc(-c3ccc(Oc4ccccc4)cc3)c3c(N)ncnc32)CC1 [Compound 9] | – | – | paw inflammation ([2]; 12.5 mg/kg orally once per day): reduced the increase in paw inflammation; paw inflammation ([2]; 50 mg/kg orally once per day): reduced the increase in paw inflammation
C=CC(=O)N1CCC(n2nc(-c3ccc(Oc4ccccc4)cc3)c3c(N)ncnc32)CC1 [Compound 6] | 0.39 nmol/min | – | –
CN(C)C/C=C/C(=O)N1CCC(n2nc(-c3ccc(Oc4ccccc4)cc3)c3c(N)ncnc32)CC1 [Compound 7, (E)-1-(4-(4-amino-3-(4-phenoxyphenyl)-1H-pyrazolo[3,4-d]pyrimidin-1-yl)piperidin-1-yl)-4-(dimethylamino)but-2-en-1-one] | 0.01 nmol/min | significantly longer in vivo half-life | –
Nc1ncnc2c1c(-c1ccc(Oc3ccccc3)cc1)nn2C1CCCN(C(=O)/C=C/c2c[nH]cn2)C1 (centres unmarked) [Compound 4] | – | – | time to reduced Egr-1 expression (Egr-1): ≤ 1 h; maximal downregulation of Egr-1 expression (Egr-1; achieved by 4 hr): 10 fold; IC50 (BTK): 22.2 nM; decrease of pERK levels [4]: not; IC50 [5]: < 10 nM
CN(C)C/C=C/C(=O)N1CCC[C@@H](n2nc(-c3ccc(Oc4ccccc4)cc3)c3c(N)ncnc32)C1 [Compound 2] | – | – | kinase panel profile [6]: highly potent and selective inhibitor of Tec family kinases, including, Btk, as well as Src family kinases
CC#CC(=O)N[C@H]1CC[C@@H](n2nc(-c3ccc(Oc4ccccc4)cc3)c3c(N)ncnc32)CC1 [Compound 22, N-((1s,4s)-4-(4-amino-3-(4-phenoxyphenyl)-1H-pyrazolo[3,4-d]pyrimidin-1-yl)cyclohexyl)but-2-ynamide] | 0.014 nmol/min | – | –
CN(C)C/C=C/C(=O)N[C@H]1CC[C@@H](n2nc(-c3ccc(Oc4ccccc4)cc3)c3c(N)ncnc32)CC1 [Compound 8, (E)-N-((1s,4s)-4-(4-amino-3-(4-phenoxyphenyl)-1H-pyrazolo[3,4-d]pyrimidin-1-yl)cyclohexyl)-4-(dimethylamino)but-2-enamide] | – | significantly longer in vivo half-life | –
CN(C)C/C=C/C(=O)N1CCC[C@H]1Cn1nc(-c2ccc(Oc3ccccc3)cc2)c2c(N)ncnc21 [Compound 12, (E)-1-((S)-2-((4-amino-3-(4-phenoxyphenyl)-1H-pyrazolo[3,4-d]pyrimidin-1-yl)methyl)pyrolidin-1-yl)-4-(dimethylamino)but-2-en-1-one] | 0.004361 nmol/min | short half-life in vivo | –
